Measurements from US20260232666A1, “COMPOSITIONS AND METHODS FOR INHIBITION OF RAS” (TheRas, Inc., priority 2023, published 2026).

The compounds below were run against T1, Avi-KRAS G12C (1-169) GppNHp/RAF1 RBD-3×FLAG (52-151) (Homo sapiens, UniProt P01116, G12C) (assay: Raf1 RBD-KRAS G12C-GppNHp disruption assay (protein:protein interaction HTRF)).
T1 construct: Avi-KRAS G12C (1-169) GppNHp; Avi (N)
Assay type: biochemical
Method: Biological Example 2: Disrupting KRAS G12C-Effector Binding (Protein: Protein Interaction HTRF Assay)
A protein: protein interaction (PPI) Homogeneous Time Resolved Fluorescence (HTRF) assay was used to determine the effectiveness of compounds of the present disclosure in disrupting KRAS G12C protein and effector (RAF1 Ras Binding Domain (RBD)) binding.
The HTRF assay used the following reagents and proteins: 50 nM Avi-KRAS G12C (1-169) GppNHp/RAF1 RBD-3×FLAG (52-151); 35 nM Avi-PI3K RBD-3×FLAG; Assay Buffer: 50 mM Tris pH 7.5, 100 mM NaCl, 5 mM MgCl2, 0.1% BSA, 0.01% Tween 20, 10% DMSO; Bead Buffer: 50 mM Tris pH 7.5, 0.01% Tween 20; Assay volume: 20 μL (384 well plate-low volume format); and Compound titration: 30-0.02 μM, 3× dilution series.
The HTRF assay employed the following protocol:
Compounds were dispensed in assay plate (384-well, Grenier Bio-One #784075) using Echo (model 555) with dose response settings: 200 nL final volume, titration from 100 μM as a 10-point dilution series. KRAS proteins were prepared in assay buffer, and dispensed on plates, 5 μL per well, then incubated for 1 h at room temperature, with 700 rpm shaking. RAF1 RBD were prepared in assay buffer, dispensed onto plates, 5 μL per well, and then incubated for 1 h at room temperature, with 700 rpm shaking. Reagent mix was then prepared and dispensed on plates, 10 μL per well, and then incubated for 1 h at room temperature, with 700 rpm shaking.
Plates were analyzed on an Envision plate reader using the following setting: Excitation 320 nm, Bandwidth 75 nm; Emission 615 nm, Bandwidth 85 nm; Gain 100%; Flashes 100; Lag 60 μs. Data was reported as percentage of activity, with DMSO as 100%. Data was plotted and analyzed using Prism 8.
The percent of modification of GppNHp, GTP, or GDP loaded KRAS G12C by MALDI-TOF MS, biochemical Raf1 RBD-KRAS G12C-GppNHp disruption assay IC50, and pERK inhibition IC50 of selected compounds described herein are shown in Table 4. For percent of modification at 15 minutes (MALDI-TOF MS) of GppNHp, GTP, or GDP loaded KRAS G12C: A: percent of modification ≥70%; B: 50≤percent of modification <70%; C: 10%≤percent of modification <50%; D: percent of modification <10%. […] For pERK inhibition in H358 cell assay: A: IC50≤0.1 μM; B: 0.1 μM<IC50≤1 μM; C: IC50>1 μM. Blanks in the table represent that compound was not tested in the indicated assay.

T1 sequence (P01116 1-169 isoform P01116-2 G12C limits assumed): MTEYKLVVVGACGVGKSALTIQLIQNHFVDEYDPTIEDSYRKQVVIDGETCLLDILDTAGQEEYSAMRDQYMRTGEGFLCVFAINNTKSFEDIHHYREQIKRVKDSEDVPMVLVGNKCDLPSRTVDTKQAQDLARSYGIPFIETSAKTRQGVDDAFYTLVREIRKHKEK

Compound | IC50
C=CC(=O)N1CC[C@@H](N(C)c2nc(OC[C@H]3C[C@@H](OC)CN3C)nc3c(F)c(-c4ccc(F)c5sc(N)c(C#N)c45)c(C(F)(F)F)cc23)[C@H]1C (single isomer, unassigned) [Compound 175] | 5000 to 20000 nM
C=CC(=O)N1CC[C@@H](N(C)c2nc(OC[C@@H]3C[C@@H](F)CN3C)nc3c(F)c(-c4nc(N)cc(C)c4C(F)(F)F)c(C(F)(F)F)cc23)[C@H]1C [Compound 145] | < 500 nM
C=CC(=O)N1CCC(N(CC)c2nc(OC[C@@]34CCCN3C[C@H](F)C4)nc3c(F)c(-c4ccc(F)c5sc(N)c(C#N)c45)c(Cl)cc23)[C@H]1CC (some centres unmarked) [Compound 12] | < 500 nM
C=CC(=O)N1CC[C@@H](N(CC)c2nc(OC[C@@H]3C[C@@H](OC)CN3C)nc3cc(-c4ccc(F)c5sc(N)c(C#N)c45)c(F)cc23)[C@H]1C [Compound 140] | < 500 nM
C=CC(=O)N1CC[C@@H](N(CC)c2nc(OC[C@]34CCCN3C[C@H](OC)C4)nc3c(F)c(-c4ccc(F)c5sc(N)c(C#N)c45)c(C(F)(F)F)cc23)[C@H]1C [Compound 158] | < 500 nM
C=CC(=O)N1CC[C@@H](N(C)c2nc(OC[C@@]34CCCN3C[C@H](F)C4)nc3cc(-c4ccc(F)c5sc(N)c(C#N)c45)c(C#N)cc23)[C@@H]1C [Compound 27] | < 500 nM
C=CC(=O)N1CC[C@@H](N(CC)c2nc(OC[C@@]34CCCN3C[C@H](F)C4)nc3c(F)c(-c4ccc(F)c5sc(N)c(C#N)c45)ccc23)[C@H]1C [Compound 17, 4-(4-(((2R,3R)-1-acryloyl-2-methylpyrrolidin-3-yl)(ethyl)amino)-8-fluoro-2-(((2R,7aS)-2-fluorotetrahydro-1H-pyrrolizin-7a(5H)-yl)methoxy)quinazolin-7-yl)-2-amino-7-fluorobenzo[b]thiophene-3-carbonitrile] | < 500 nM
C=CC(=O)N1CC[C@@H](N(C)c2nc(OC[C@@]34CCCN3C[C@H](F)C4)nc3cc(-c4ccc(F)c5sc(N)c(C#N)c45)c(F)cc23)[C@@H]1C [Compound 31] | < 500 nM
C=CC(=O)N1CC[C@@H](N(C)c2nc(OC[C@@]34CCCN3C[C@H](F)C4)nc3c(F)c(-c4ccc(F)c5sc(N)c(C#N)c45)c(C(F)(F)F)cc23)[C@H]1CC [Compound 18] | < 500 nM
C=CC(=O)N1CC[C@@H](N(CC)c2nc(OC[C@@H]3CCCN3C)nc3c(F)c(-c4nc(N)cc(C)c4C(F)(F)F)c(C(F)(F)F)cc23)[C@H]1C [Compound 155] | < 500 nM
C=CC(=O)N1C[C@H](C)N(c2nc(OC[C@@]34CCCN3C[C@H](F)C4)nc3c(F)c(-c4ccc(F)c5sc(N)c(C#N)c45)c(Cl)cc23)C[C@H]1C (atropisomer, axis not shown) [Compound 103] | 5000 to 20000 nM
C=CC(=O)N1C[C@H](C)N(c2nc(OC[C@@]34CCCN3C[C@H](F)C4)nc3c(F)c(-c4ccc(F)c5sc(N)c(C#N)c45)c(Cl)cc23)C[C@H]1C (atropisomer, axis not shown) [Compound 102] | < 500 nM
C=CC(=O)N1CC[C@@H](N(C)c2nc(OC[C@@H]3CCCN3C)nc3c(F)c(-c4ccc(F)c5sc(N)c(C#N)c45)c(Cl)cc23)[C@H]1C (atropisomer, axis not shown) [Compound 119] | 5000 to 20000 nM
C=CC(=O)N1C[C@@H](C)N(c2nc(OC[C@@]34CCCN3C[C@H](F)C4)nc3c(F)c(-c4ccc(F)c5sc(N)c(C#N)c45)c(C(F)(F)F)cc23)C[C@@H]1C [Compound 124] | < 500 nM
C=CC(=O)N1CC[C@@H](N(CC)c2nc(OC[C@]34CCCN3C[C@H](OC)C4)nc3c(F)c(-c4ccc(F)c5sc(N)c(C#N)c45)ccc23)[C@H]1C [Compound 169] | < 500 nM
C=CC(=O)N1CC[C@@H](N(C)c2nc(OC[C@@]34CCCN3C[C@H](F)C4)nc3c(F)c(-c4ccc(F)c5sc(N)c(C#N)c45)ccc23)[C@@H]1CC [Compound 23] | < 500 nM
C=CC(=O)N1CC[C@@H](N(C)c2nc(OC[C@@H]3CCCN3C)nc3c(F)c(-c4ccc(F)c5sc(N)c(C#N)c45)c(C(F)(F)F)cc23)[C@H]1C (atropisomer, axis not shown) [Compound 131] | < 500 nM
